Laboratory results from patent US4071528A, “Certain thiazolidine and tetrahydrothiazine compounds” (May & Baker Limited, priority 1975, dated 1978).
Where two headings read alike, the source gives them in different places.

Assays:
[1] = tested on: Mycosphaerella pinodes; test: Minimum effective concentration totally inhibiting fungal growth, Mycosphaerella pinodes, potato dextrose agar tubes; assay type: cell-based; conditions: Didymella pinodes, 48 h; total inhibition of fungal growth; tested at 50, 10 or 2 ppm; 25° C, 2 days
Method: Test tubes containing 4.0 ml of molten potato dextrose agar at about 50° C were inoculated with 0.5 ml of suspension of test compound and 0.5 ml of fungal suspension delivered from a sterile syringe to give a final concentration of each compound of 50, 10 or 2 ppm. Two replicate tubes were inoculated with each fungal species. After the addition of test compounds and fungal inoculum to the molten medium the tubes were sloped and the agar was allowed to set. The tubes were incubated at 25° C for either 2 days (Mycosphaerella pinodes) or 3 days (Helminthosporium avenae). […] The suspensions of test compounds were prepared by grinding 0.025 g of test compound with sterile distilled water containing 0.1 ml of 0.1% Texofor FX170 wetting agent, followed by dilution to the concentration desired. The inoculum of Mycosphaerella pinodes was prepared as follows: A one to two week old culture on Coon's agar on plates was scraped off with a glass rod and sterile distilled water and filtered through muslin. The filtrate, containing the spores, was used for inoculation.

[2] = tested on: Dictyocaulus viviparus; test: C.2 Activity against Dictyocaulus viviparus in mature and immature stages in calves; assay type: in vivo; conditions: s.c. 25 mg/kg (methanesulphonate salt)
Method: (§1) C.2. Activity against Cooperia oncophora, Ostertagia ostertagi, and Dictyocaulus viviparus in their mature and immature stages in calves. Worm free, 6-7 week old calves were each infected with 15,000 C. oncophora, 15,000 O. ostertagi and 3,000 D. viviparus larvae. Groups of two animals each were treated subcutaneously with test compound A at a dose of 25 mg/kg animal body weight at 7 days or 25 days after infection, one group of two animals being left untreated as a control. All calves were killed approximately 28 days after infection and were examined for residual worm burdens. The percentage reduction in mean worm burden of each worm species compared with the untreated control group is given below in Table V.

[3] = Oral acute toxicity (LD50) in mice; conditions: mouse, in vivo, observed during next 6 days
From the text: Mice were each treated orally with one of the compounds of formula I, and they were observed during the next 6 days. The LD50 figures obtained (doses lethal to 50% of mice tested) are shown in Table VII, expressed in mg/kg animal body weight.

[4] = tested on: Fasciola hepatica; test: D. Activity against mature and immature liver flukes in sheep; assay type: in vivo; conditions: oral 25 mg/kg in gelatin capsules
Method: D. Activity against mature and immature liver flukes in sheep On the first day of the experiment a group of sheep were each infected with 300 metacercariae of liver fluke Fasciola hepatica and on the 56th day they were each infected with a further 300 metacercariae of F. hepatica. On day 70 of the experiment, doses of the test compounds of 25 mg/kg animal body weight were administered orally in gelatin capsules to groups of two animals per compound. One group of two animals was left untreated as controls. On day 98 of the experiment, all the sheep were killed. The number of mature flukes present in the bile ducts and the numbers of immature flukes present in the rest of the liver were counted. The activities, expressed in terms of the percentage reduction in mean fluke burdens compared with the untreated controls, are shown below in Table VI.

[5] = tested on: Trichostrongylus colubriformis; test: B.2 Activity against Trichostrongylus colubriformis in 4th larval and adult stages in lambs; assay type: in vivo; conditions: oral 4 mg/kg
Method: (§2) B.2. Activity against Haemonchus contortus, Ostertagia circumcincta, Trichostrongylus axei, Trichostrongylus colubriformis and Nematodirus spathiger in their 4th larval and adult stages in lambs.
(§3) Worm-free, 8-10 week old lambs were each infected with 5,000 H. contortus, 15,000 O. circumcincta, 20,000 T. axei, 15,000 T. colubriformis and 15,000 N. spathiger larvae.
(§4) Doses of test compound A of 4 mg/kg animal body weight were then administered to each group of 2 animals, by the oral route, after 7 days or 25 days to examine the effects against the 4th larval stage and mature adult worms respectively, one group of 2 animals being left untreated as a control. All the lambs were killed for post-mortem worm wounts 28 days after infection. The activities, expressed in terms of the percentage reduction in mean worm burden of each worm species compared with the untreated control group, are given below in Table III.

[6] = tested on: Haemonchus contortus; test: B.1 Activity against adult Haemonchus contortus in lambs; assay type: in vivo; conditions: s.c. 10 mg/kg (methanesulphonate salt), adult stage
Method: (§5) B.1. Activity against Haemonchus contortus and Nematodirus spathiger in their adult stages in lambs.
(§6) Worm-free, 8-10 week old lambs were each infected with 5000 H. contortus and 15000 N. spathiger larvae. Approximately 3 weeks later, doses of test compound A were administered to each group of 2 animals, by the subcutaneous route, one group of 2 animals being left untreated as a control.
(§7) Individual faecal H. contortus egg counts were determined 1 day before and 5- 7 days after treatment, when all the lambs were killed for post-mortem worm counts. The activities, expressed in terms of the percentage reduction in mean worm burden of each worm species compared with the untreated control group, are given below.

[7] = tested on: Nematodirus spathiger; test: B.1 Activity against adult Nematodirus spathiger in lambs; assay type: in vivo; conditions: s.c. 10 mg/kg (methanesulphonate salt), adult stage
Method: as §5, §6, §7

[8] = tested on: Nippostrongylus brasiliensis; test: Activity against roundworms in rats, A.1: treatment 6 days after infection (patent infection), post-mortem worm counts; assay type: in vivo; conditions: 48 h, oral, 100 mg/kg, treated 6 days after infection, read-out: % Reduction of mean worm load
Method: In the Tables of results "s.c." means subcutaneous and the doses are expressed in mg/kg animal body weight. […] A.1. Rats were infected with 100 Nippostrongylus brasiliensis larvae each, by the subcutaneous route. After 6 days, when the infection was patent, the rats were randomised and allotted to groups of 5 animals each, ready for treatment. One group was used for each dose level of the test compound, which was administered by the oral or subcutaneous route, and in each experiment, one group of 10 animals was left untreated as a control. All the rats were killed for post-mortem worm counts 48 hours after treatment. The activities, expressed in terms of the percentage reduction in mean worm load of the treated groups compared with the untreated group, are shown in Table I.

[9] = tested on: Ostertagia ostertagi; test: C.2 Activity against Ostertagia ostertagi in mature and immature stages in calves; assay type: in vivo; conditions: s.c. 25 mg/kg (methanesulphonate salt)
Method: as §1

[10] = tested on: Trichostrongylus axei; test: B.2 Activity against Trichostrongylus axei in 4th larval and adult stages in lambs; assay type: in vivo; conditions: oral 4 mg/kg
Method: as §2, §3, §4

[11] = tested on: Ostertagia circumcincta; test: B.2 Activity against Ostertagia circumcincta in 4th larval and adult stages in lambs; assay type: in vivo; conditions: oral 4 mg/kg
Method: as §2, §3, §4

[12] = tested on: Nippostrongylus brasiliensis; test: Activity against roundworms in rats, A.2: treatment 24 hours after infection, post-mortem worm counts; assay type: in vivo; conditions: 144 h, treated 24 hours after infection, read-out: % Reduction of mean worm load
Method: In the Tables of results "s.c." means subcutaneous and the doses are expressed in mg/kg animal body weight. […] A.2. Rats were infected with 100 Nippostrongylus brasiliensis larvae each, by the subcutaneous route. After 24 hours the rats were randomised and allotted to groups of 5 animals each, ready for treatment. Doses of the test compound were then administered to each group by the oral or subcutaneous route, one group of 10 animals being left untreated as a control. All the rats were killed for post-mortem worm counts 6 days after dosing. The activities, expressed in terms of the percentage reduction in mean worm load of the treated groups compared with the untreated control group, are given below in Table II.

[13] = tested on: Haemonchus contortus; test: B.2 Activity against Haemonchus contortus in 4th larval and adult stages in lambs; assay type: in vivo; conditions: oral 4 mg/kg
Method: as §2, §3, §4

[14] = tested on: Nematodirus spathiger; test: B.2 Activity against Nematodirus spathiger in 4th larval and adult stages in lambs; assay type: in vivo; conditions: oral 4 mg/kg
Method: as §2, §3, §4

[15] = tested on: Cooperia oncophora; test: C.2 Activity against Cooperia oncophora in mature and immature stages in calves; assay type: in vivo; conditions: s.c. 25 mg/kg (methanesulphonate salt)
Method: as §1

[16] = treated 25 days after infection
[17] = treated at 7 days (4th larval stage)
[18] = treated at 25 days (mature adult worms)
[19] = sc, s.c. (methanesulphonate salt, aqueous)

COC(=O)N=C1SCC(=O)N1c1ccc(Sc2ccccc2)cc1NC(=O)CN(C)C [Compound A, 3-[2-(2-dimethylaminoacetamido)-4-phenylthiophenyl]-2-methoxycarbonyliminothiazolidin-4-one]
MIC [1]: < 2 µg/mL | % Reduction of mean worm burdens, D. viviparus ([2]; treated 7 days after infection): 83% | % Reduction of mean worm burdens, D. viviparus [2, 16]: 82% | LD50 at 144 h [3]: ~1000 mg/kg | Mean % Reduction, Immature flukes ([4]; immature flukes in rest of liver): 29% | Mean % Reduction, Mature flukes ([4]; mature flukes in bile ducts): 93% | Percentage reduction in mean worm burdens, T. colubriformis [5, 17]: 100% | Percentage reduction in mean worm burdens, T. colubriformis [5, 18]: 100% | reduction of the mean worm burden of H. contortus [6]: 100% | reduction of the mean worm burden of N. spathiger [7]: 99% | inhibition in vivo at 100 mg/kg [8]: 99% | % Reduction of mean worm burdens, O. ostertagi ([9]; treated 7 days after infection): 97% | % Reduction of mean worm burdens, O. ostertagi [9, 16]: 100% | Percentage reduction in mean worm burdens, T. axei [10, 17]: 100% | Percentage reduction in mean worm burdens, T. axei [10, 18]: 100% | Percentage reduction in mean worm burdens, O. circumcincta [11, 17]: 99% | Percentage reduction in mean worm burdens, O. circumcincta [11, 18]: 100% | inhibition in vivo at 12.5 mg/kg ([12]; oral): 85% | inhibition in vivo at 50 mg/kg ([12]; oral): 99% | inhibition in vivo at 12.5 mg/kg [12, 19]: 91% | inhibition in vivo at 50 mg/kg [12, 19]: 99% | Percentage reduction in mean worm burdens, H. contortus [13, 17]: 100% | Percentage reduction in mean worm burdens, H. contortus [13, 18]: 100% | Percentage reduction in mean worm burdens, N. spathiger [14, 17]: 95% | Percentage reduction in mean worm burdens, N. spathiger [14, 18]: 97% | % Reduction of mean worm burdens, C. oncophora ([15]; treated 7 days after infection): 100% | % Reduction of mean worm burdens, C. oncophora [15, 16]: 100%
